Test [1] has as its system apoE/LDL-R double knockout mice. The following applies: oral dosing, high-fat diet from 2 months of age to 6 months; cited from earlier work.
A further test relates to ApoE−/−xCD4dnTβRII mice. The conditions noted are these: via infusion, treated for four weeks; cited from earlier work.
The test system of the next test is human glomerulonephritis. The conditions noted are these: clinical trial; cited from earlier work.
The test system of test [2] is biomarkers for myocardial infarction risk. The conditions noted are these: clinical trials; cited from earlier work.
In a further test the test system is apoE-deficient mice. The conditions noted are these: cited from earlier work.
For test [3], the target named is T1, recombinant human FLAP protein (Homo sapiens, UniProt P20292).
T1 construct: made in house; host or cells: Sf9 insect cells (membrane fraction, 100,000 x g pellet)
T1 sequence (P20292 1-161): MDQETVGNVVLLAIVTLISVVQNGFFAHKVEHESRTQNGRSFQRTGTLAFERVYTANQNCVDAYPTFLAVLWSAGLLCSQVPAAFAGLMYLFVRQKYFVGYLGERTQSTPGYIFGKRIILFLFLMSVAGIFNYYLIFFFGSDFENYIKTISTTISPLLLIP
As to the kind of experiment: FLAP binding assay, displacement of iodinated (125I) FLAP inhibitor, Scintillation Proximity Assay format. The following applies: [125I]L-691,831 probe, membrane protein from sf9 cells; read-out: hFLAP binding IC50. For orientation: SPA uses beads or plates that emit light when radiolabelled molecules are held near them.

With `CC(C)c1ccc2c(c1)c(SC(C)(C)C)c(CC(C)(C)C(=O)O)n2Cc1ccc(Cl)cc1` [MK-886], in test [1], the “decrease in plaque coverage in the aorta” value is 56% and the “decrease in plaque coverage in the aortic root” value was 43%. The “decrease in plaque area in the aortic root” value in the test on ApoE−/−xCD4dnTβRII mice is listed as around 40%.

Take `CC(C)(C)Sc1c(CC(C)(C)C(=O)O)n(Cc2ccc(Cl)cc2)c2ccc(OCc3ccc4ccccc4n3)cc12` [MK-591]: the effect on proteinuria result in the test on human glomerulonephritis is given as “reduce proteinuria”. As to `O=C(O)[C@@H](c1ccc(OCc2ccc3ccccc3n2)cc1)C1CCCC1` [DG-031], the “effect on biomarkers for myocardial infarction risk” value in test [2] is “dose-dependent suppression of several biomarkers”. Regarding `C[C@H](C#Cc1ccc(Cc2ccc(F)cc2)s1)N(O)C(N)=O` [VIA-2291], the effect on atherosclerosis result in the test with apoE-deficient mice was “attenuate atherosclerosis”. The IC50 is the concentration needed to halve the response being measured. As to `Cc1ncn(-c2ccc(C#N)cc2-c2nc3cc(-c4cnc(N)nc4)ccc3n2C(C)(C)C)n1` [3-[5-(2-Amino-pyrimidin-5-yl)-1-tert-butyl-1H-benzimidazol-2-yl]-4-(3-methyl-1,2,4-triazol-1-yl)-benzonitrile], in test [3], the IC50 worked out at 3 nM. In the case of `CCCCC/C(=C\C(=O)OC)c1ccc(-n2cncn2)c(-c2nc3cc(-c4cnc(N)nc4)ccc3n2C(C)(C)C)c1` [(E)-3-{3-[5-(2-Amino-pyrimidin-5-yl)-1-tert-butyl-1H-benzoimidazol-2-yl]-4-[1,2,4]triazol-1-yl-phenyl}-oct-2-enoic acid methyl ester], in test [3], the IC50 worked out at 28 nM. With `CC(C)(C)n1c(-c2ccccc2-c2ncn(CCO)n2)nc2cc(-c3cnc(N)nc3)ccc21` [2-(3-{2-[5-(2-Amino-pyrimidin-5-yl)-1-tert-butyl-1H-benzoimidazol-2-yl]-phenyl}-[1,2,4]triazol-1-yl)-ethanol], the IC50 in test [3] was 5.8 nM. As to `Cc1ncn(-c2ccccc2-c2nc3cc(-c4cnc(N)nc4)ccc3n2C(C)(C)C)n1` [5-{1-tert-Butyl-2-[2-(3-methyl-1,2,4-triazol-1-yl)-phenyl]-1H-benzimidazol-5-yl}-pyrimidin-2-ylamine], the IC50 in test [3] turned out to be 1.6 nM. Take `Cc1noc(-c2ccccc2-c2nc3cc(-c4cnc5[nH]ccc5c4)ccc3n2C(C)(C)C)n1` [1-tert-Butyl-2-[2-(3-methyl-1,2,4-oxadiazol-5-yl)-phenyl]-5-(1H-pyrrolo[2,3-b]pyridin-5-yl)-1H-benzimidazole]: the IC50 in test [3] came out at 1.2 nM. For `CC(C)(C)n1c(-c2cc(I)ccc2-n2cncn2)nc2cc(-c3cnc(N)nc3)ccc21` [5-[1-tert-Butyl-2-(5-iodo-2-1,2,4-triazol-1-yl-phenyl)-1H-benzimidazol-5-yl]-pyrimidin-2-ylamine], the IC50 in test [3] turned out to be 2.7 nM. For `CC(C)(COc1ccc(-c2nc3cc(-c4cnc(N)nc4)ccc3n2C(C)(C)C)c(-n2cncn2)c1)C(=O)O` [3-{4-[5-(2-Amino-pyrimidin-5-yl)-1-tert-butyl-1H-benzoimidazol-2-yl]-3-[1,2,4]triazol-1-yl-phenoxy}-2,2-dimethyl-propionic acid], in test [3], the IC50 was determined as 4 nM. In the case of `COc1ccc(-n2cccn2)c(-c2nc3cc(-c4cnc5[nH]ccc5c4)ccc3n2C(C)(C)C)c1` [1-tert-Butyl-2-(5-methoxy-2-pyrazol-1-yl-phenyl)-5-(1H-pyrrolo[2,3-b]pyridin-5-yl)-1H-benzimidazole], the IC50 in test [3] came to 1.1 nM. Regarding `CC(C)(C)n1c(-c2cc(F)ccc2-n2cncn2)nc2cc(-c3cnc(N)nc3)ccc21`, the IC50 in test [3] was determined as 1.4 nM. Turning to `CC(C)(C)n1c(-c2cc(Br)ccc2-n2cncn2)nc2cc(-c3cnc(N)nc3)ccc21` [5-[2-(5-Bromo-2-1,2,4-triazol-1-yl-phenyl)-1-tert-butyl-1H-benzimidazol-5-yl]-pyrimidin-2-ylamine], the IC50 in test [3] was 4.5 nM.

Consider `Cc1ncn(-c2ccc(F)cc2-c2nc3cc(-c4cnc(N)nc4)ccc3n2C(C)(C)C)n1` [5-{1-tert-Butyl-2-[5-fluoro-2-(3-methyl-1,2,4-triazol-1-yl)-phenyl]-1H-benzimidazol-5-yl}-pyrimidin-2-ylamine], for which the IC50 in test [3] was 1.4 nM.

The record behind these values is patent US8420655B2, “Benzimidazole inhibitors of leukotriene production” (Boehringer Ingelheim International GmbH, priority 2009, dated 2013).
